Broadly, the pKi is −log10 of the Ki, conventionally taken in molar units.

From US6015900A, “N-aminoalkylfluorenecarboxamides” (Neurogen Corporation, priority 1998, dated 2000) come the findings set out here.

pKi: −log10 of the molar value. Structures can show the parent of a compound that is named as a salt. Where two headings read alike, the source gives them in different places.

One assay deals with D3 receptors (Chlorocebus aethiops, UniProt P52703). Description: biochemical. It is filed as binding, African Green monkey.
The target in a further assay is D2 receptors (Chlorocebus aethiops, UniProt P52702). Description: biochemical. It is filed as binding, African Green monkey.
Where [1] appears, read: COS cells containing recombinant D3 receptors, 0.5 nM ^3 H-YM 09151-2, nonspecific binding with 1 mM spiperone, read-out: D3 Ki.
The mark [2] stands for this setting: COS cells containing recombinant D2 receptors, 0.5 nM ^3 H-YM 09151-2, nonspecific binding with 1 mM spiperone, read-out: D2 Ki.

D2 receptors, sequence (P52702 whole entry): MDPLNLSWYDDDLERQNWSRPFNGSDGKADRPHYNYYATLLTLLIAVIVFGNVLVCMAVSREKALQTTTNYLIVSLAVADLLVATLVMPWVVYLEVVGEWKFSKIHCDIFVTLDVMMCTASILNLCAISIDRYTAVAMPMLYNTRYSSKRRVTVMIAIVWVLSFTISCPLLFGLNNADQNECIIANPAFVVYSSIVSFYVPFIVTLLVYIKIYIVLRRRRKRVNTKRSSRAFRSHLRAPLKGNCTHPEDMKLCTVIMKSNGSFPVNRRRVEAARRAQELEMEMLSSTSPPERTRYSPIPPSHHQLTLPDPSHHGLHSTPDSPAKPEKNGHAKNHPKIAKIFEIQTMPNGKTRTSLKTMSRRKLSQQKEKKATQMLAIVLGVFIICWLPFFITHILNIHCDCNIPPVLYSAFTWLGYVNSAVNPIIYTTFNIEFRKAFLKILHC
D3 receptors, sequence (P52703 whole entry): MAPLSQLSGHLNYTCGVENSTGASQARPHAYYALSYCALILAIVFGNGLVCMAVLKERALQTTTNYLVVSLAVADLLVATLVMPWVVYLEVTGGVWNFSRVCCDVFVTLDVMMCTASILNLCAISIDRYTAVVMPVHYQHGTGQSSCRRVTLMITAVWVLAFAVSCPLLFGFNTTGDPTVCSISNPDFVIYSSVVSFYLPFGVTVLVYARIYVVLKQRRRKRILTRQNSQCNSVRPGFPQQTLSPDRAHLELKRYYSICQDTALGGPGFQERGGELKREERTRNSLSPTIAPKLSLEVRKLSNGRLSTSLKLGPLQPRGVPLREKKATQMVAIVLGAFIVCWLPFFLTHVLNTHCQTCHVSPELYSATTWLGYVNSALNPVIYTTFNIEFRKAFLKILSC
Protocol for D2 receptors: (§1) Pellets of COS cells containing recombinantly produced D2 or D3 receptors from African Green monkey were used for the assays. The sample is homogenized in 100 volumes (w/vol) of 0.05 M Tris HCl buffer at 4° C. and pH 7.4. The sample is then centrifuged at 30,000×g and resuspended and rehomogenized. The sample is then centrifuged as described and the final tissue sample is frozen until use. The tissue is resuspended 1:20 (wt/vol) in 0.05 M Tris HCl buffer containing 100 mM NaCl.
(§2) Incubations are carried out at 48° C. and contain 0.4 ml of tissue sample, 0.5 nM ^3 H-YM 09151-2 and the compound of interest in a total incubation of 1.0 ml. Nonspecific binding is defined as that binding found in the presence of 1 mM spiperone; without further additions, nonspecific binding is less than 20% of total binding.
Protocol for D3 receptors: as §1, §2

As for `O=C(NCCCCN1CCN(c2cccc(Cl)c2Cl)CC1)c1ccc2c(c1)Cc1ccccc1-2` [Compound 1, N-{4-[4-(2,3-dichlorophenyl)-1-piperazinyl]butyl}-9H-fluorene-2-carboxamidehydrochloride], the negative-log Ki (pKi) on D3 receptors was 8.52; at D2 receptors, 6.14.
With `O=C(NCCCCN1CCN(c2cccc3ccccc23)CC1)c1ccc2c(c1)Cc1ccccc1-2` [Compound 2, N-{4-[4-(1-Naphthyl)-1-piperazinyl]butyl}-9H-fluorene-2-carboxamide hydrochloride], the negative logarithm of the Ki (pKi) on D3 receptors (setting [1]) is 9.00; on D2 receptors (setting [2]), 6.82.
Turning to `O=C(NCCCCN1CCN(c2ccccc2Cl)CC1)c1ccc2c(c1)C(=O)c1ccccc1-2` [Compound 3, N-{4-[4-(2-Chlorophenyl)-1-piperazinyl]butyl}-9-oxo-fluorene-2-arboxamide hydrochloride], the pKi was 9.15 at D3 receptors (setting [1]) and 7.01 on D2 receptors (setting [2]).
